Measurements taken from patent publication US20220096421A1, “Active Ingredient, Pharmaceutical Composition, and Medicinal Product for HIV and AIDS Therapy” (priority 2019, published 2022).
Entries after “also recorded” stand apart in the source; their conditions may differ. Like-named read-outs stand apart in the source and are kept apart here.

What was measured:
HIV-1 = experiment: Efficacy, safety and optimal dosage study in previously untreated HIV-1-infected patients versus Efavirenz; conditions: for development of HIV-1 resistance: patients, at the studied doses; for viral load decrease: week 12; for viral load decrease / viral load change: 20 mg MMSCs of formula Ib, 600 mg Efavirenz; for viral load change: week 24
Description: Doses of 20 mg/day (60 patients) and 40 mg/day (60 patients) of MMSCs of formula Ib were studied versus 600 mg/day of Efavirenz (30 patients).
Doses of 20.7 mg/day (60 patients) and 41.4 mg/day (60 patients) of MMSCs of formula Ib were studied in comparison with Efavirenz (600 mg/day, 30 patients).

[1] = Clinical trial in healthy volunteers, pharmacokinetics with daily administration of capsules; conditions: constant administration, average
Description: The concentration-time pattern of metabolite Ia in the blood was evaluated by its content in the plasma and blood cells.

[2] = Pharmacokinetics in healthy volunteers with repeated weekly administration; assay type: in vivo, human; conditions: for Cmax / concentration at 168 h: human, in vivo, oral; for Cmax: read-out: Cmax of active metabolite Ia in the first week; for concentration at 168 h: read-out: concentration of active metabolite Ia a week later (168 hours)

Row | time of dosing to maximum plasma concentration of active metabolite Ia ([1]; 10 mg/day) | time of dosing to maximum plasma concentration of active metabolite Ia ([1]; 20 mg/day) | time of dosing to maximum plasma concentration of active metabolite Ia ([1]; 30 mg/day) | time to maximum concentration of active metabolite Ia in the first week ([2]; 41.4, 82.8 or 124.2 mg/week, after taking the drug) | Cmax ([2]; 41.4 mg/week) | concentration at 168 h ([2]; 41.4 mg/week) | Cmax ([2]; 82.8 mg/week) | concentration at 168 h ([2]; 82.8 mg/week) | Cmax ([2]; 124.2 mg/week) | concentration at 168 h ([2]; 124.2 mg/week) | SMILES | development of HIV-1 resistance (HIV-1) | viral load decrease (HIV-1) | viral load change (HIV-1) | occurrence of a viral load reduction of 10 times and more (HIV-1; 20 mg versus Efavirenz 600 mg, p=0.053) | efficacy difference between the MMSCs of formula Ib therapy groups (HIV-1; 20 versus 40 mg/day groups, p=0.804) | serious adverse events (HIV-1; HIV-1-infected patients) | effectiveness in reducing the viral load to <400 copies/ml (HIV-1; doses of 20 and 40 mg, over a period of 12 weeks, versus Efavirenz 600 mg/day) | advantage of the 20 mg group over the Efavirenz 600 mg group (HIV-1; p=0.0237) | frequency of achieving an undetectable HIV-1 RNA level (HIV-1; week 36, versus Efavirenz, p=0.408)
1 |  |  |  |  |  |  |  |  |  |  | O=C1Nc2ccc(Cl)cc2[C@@](C#CC2CC2)(C(F)(F)F)O1 [Efavirenz, reference compound] | No development of HIV-1 resistance was established; also recorded: has not been established | −2.7±1.0 | −3.3±0.8 |  |  |  |  |  | 
2 | 9.8 days | 7.5 days | 6.7 days | approximately 5.5 hours | 34.5 ng/mL | 26.1 ng/mL | 63.6 ng/mL | 36.9 ng/mL | 117 ng/mL | 57.2 ng/mL | N#Cc1cc(Cl)cc(Oc2c(Br)ccc(CC(=O)Nc3ccc(S(N)(=O)=O)cc3Cl)c2F)c1 [Ia] |  |  |  |  |  |  |  |  | 
3 |  |  |  |  |  |  |  |  |  |  | CCC(=O)[N-]S(=O)(=O)c1ccc(NC(=O)Cc2ccc(Br)c(Oc3cc(Cl)cc(C#N)c3)c2F)c(Cl)c1.[Na+] [MMSCs of formula Ib, sodium {[4-({[4-bromo-3-(3-chloro-5-cyanophenoxy)-2-fluorophenyl]acetyl}amino)-3-chlorophenyl]-sulfonyl}(propanoyl)azanide] | No development of HIV-1 resistance was established; also recorded: has not been established | −2.8±0.7 | −3.3±0.7 | tendency for a statistical difference | did not differ in effectiveness; also recorded: did not differ in efficacy | No serious adverse events were observed | not inferior to Efavirenz | statistically significant | did not statistically differ; also recorded: did not differ statistically
